Experiments:
Format in all cases: in vivo
[1] = test system: large crabgrass (Digitaria sanguinalis, DIGSA); test: Pre-emerge greenhouse herbicide test, phytotoxicity rating; settings: Digitaria sanguinalis, pre-emergence, 336 h, 14 days after application, rating scale 0-100; for pest or weed control at 125 g/ha: Rate 125 g al/ha; for pest or weed control at 500 g/ha: Rate 500 g al/ha
Summary of the method: (§1)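 Seeds sown in sandy loam mix one day before track-sprayer application of compounds in acetone at 125–1000 g ai/ha (187 l/ha), then surface-watered to incorporate and bottom-watered. Visual rating 14 days after application on a 0–100 scale (0 = no damage, 100 = all plants dead).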

[2] = test system: redroot pigweed (Amaranthus retroflexus, AMARE); test: as above; settings: Amaranthus retroflexus, pre-emergence, 336 h, 14 days after application, rating scale 0-100; for pest or weed control at 125 g/ha: Rate 125 g al/ha; for pest or weed control at 500 g/ha: Rate 500 g al/ha
Summary of the method: as §1

[3] = test system: barnyardgrass (Echinochloa crusgalli, ECHCG); test: as above; settings: Echinochloa crus-galli, pre-emergence, 336 h, 14 days after application, rating scale 0-100; for pest or weed control at 125 g/ha: Rate 125 g al/ha; for pest or weed control at 500 g/ha: Rate 500 g al/ha
Summary of the method: as §1

Grass Weeds = test: Post-emergent application in combination with other herbicides, percent control of grass weeds; settings: 31.25 g ai/ha
Method: All test compounds were dissolved in acetone and applied to the test units in a volume of 187 l/ha. Test materials were applied at rates ranging from 125 g ai/ha to 1000 g ai/ha using a track sprayer equipped with a TJ8001E even flow flat fan spray nozzle. Plants were arranged on a shelf so that the top of the canopy (post-emerge) or top of the soil surface (pre-emerge) was 40-45 cm below the nozzle. Pressurized air was used to force the test solution through the nozzle as it was mechanically advanced (via electrically driven chain drive) over the top of all test plants/pots. This application simulates a typical commercial field herbicide application. In the post-emerge test, a commercial non-ionic surfactant was also included (0.25% v/v) to enhance wetting of the leaf surfaces Qf target plants at rates ranging from 63 g ai/ha to 1000 g ai/ha. For post-emerge tests, seeds were planted 8-21 days prior to the test to allow emergence and good foliage development prior to application of the test substances. At the time of the post-emerge application, plants of all species were usually at the 2-3 leaf stage of development. Post-emerge test units were always bottom-watered. At 14 days after application of the test materials, phytotoxicity ratings were recorded. A rating scale of 0-100 was used as previously described in Research Methods in Weed Science, 2nd edition, B. Truelove, Ed., Southern Weed Science Society, Auburn University, Auburn, Ala., 1977. Briefly, “0” corresponds to no damage and “100” corresponds to complete death of all plants in the test unit. This scale was used both to determine efficacy against weed species and damage to crop species. Herbicide activity data for various compounds of this invention, which are shown by compound number in Tables 1-9, are shown in Tables 13 and 14. […] (Note: Weed species abbreviations are from the Composite List of Weeds published by the Weed Science Society of America, 1989.) The following examples illustrate the utility of combinations of compounds of this invention and existing herbicides. The methods used are identical to those for the application of single compounds except the commercial formulations of existing herbicides were added to the spray mixture in the appropriate amounts before spraying. Combination Example 3. Post-emergent Application of Compound 9-1 with Nicosulfuron Combination Example 4. Postemergent Application of Compound 9-1 with Pyridate

[4] = test system: common ragweed (Ambrosia artemisiifolia L., AMBEL); test: Pre-emerge greenhouse herbicide test, phytotoxicity rating; settings: 14 days after application, rating scale 0-100
Summary of the method: as §1

[5] = test system: common ragweed (Ambrosia artemisiifolia L., AMBEL); test: Post-emerge greenhouse herbicide test, phytotoxicity rating; settings: 14 days after application, scale 0-100
Summary of the method: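 Compounds in acetone with 0.25% v/v non-ionic surfactant were track-sprayed at 187 l/ha over plants at the 2-3 leaf stage, at 63 to 1000 g ai/ha. Pots were bottom-watered. Injury was scored visually 14 days later on a 0-100 scale, where 0 is no damage and 100 is complete plant death.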

Compound	pest or weed control at 125 g/ha [1] [%]	pest or weed control at 500 g/ha [1] [%]	pest or weed control at 125 g/ha [2] [%]	pest or weed control at 500 g/ha [2] [%]	pest or weed control at 125 g/ha [3] [%]	pest or weed control at 500 g/ha [3] [%]	Percent Control of Grass Weeds DIGSA (Grass Weeds) [%]	Percent Control of Grass Weeds DIGSA (Grass Weeds; Combination Example 4) [%]	Percent Control of Grass Weeds ECHCG (Grass Weeds) [%]	Percent Control of Grass Weeds ECHCG (Grass Weeds; Combination Example 4) [%]	Percent Control of Grass Weeds SETVI (Grass Weeds) [%]	Percent Control of Grass Weeds SETVI (Grass Weeds; Combination Example 4) [%]	Percent Control of Grass Weeds SORHA (Grass Weeds) [%]	Percent Control of Grass Weeds SORHA (Grass Weeds; Combination Example 4) [%]	AMBEL phytotoxicity rating ([4]; Rate 125 g al/ha)	AMBEL phytotoxicity rating ([4]; Rate 500 g al/ha)	phytotoxicity rating AMBEL ([5]; rate 63 g ai/ha)	phytotoxicity rating AMBEL ([5]; rate 500 g ai/ha)
Nn1c(C(F)(F)F)cc(=O)n(-c2cc(Oc3ncccc3[N+](=O)[O-])c(Cl)cc2F)c1=O [Compound 9-1, 1-amino-3-[4-chloro-2-fluoro-5-(3-nitro-2-pyridyloxy)phenyl]-6-trifluoromethyl-1,2,3,4-tetrahydropyrimidine-2,4-dione]	40	100	100	100	95	100	10	10	0	0	10	10	10	10				
O=c1n(-c2cc(Oc3ncccn3)c(Cl)cc2F)c(=S)n2n1CCCC2 [Compound 8-29, 2-[4-chloro-2-fluoro-5-(2-pyrimidyloxy)phenyl]hexahydro-3-thioxo-1H-[1,2,4]triazolo[1,2-a]pyridazin-1-one]	100	100	100	100	100	100									100	100	90	100
O=c1n(-c2cc(Oc3ncccc3C(F)(F)F)c(Cl)cc2F)c(=S)n2n1CCCC2 [Compound 8-18, 2-[4-chloro-2-fluoro-5-(3-trifluoromethyl-2pyridyloxy)phenyl]hexahydro-3-thioxo-1H-[1,2,4]triazolo[1,2-a]pyridazin-1-one]	50	100	100	100	40	80									100	95	95	60
Nn1c(C(F)(F)F)cc(=O)n(-c2cc(Oc3nccc(Cl)n3)c(Cl)cc2F)c1=O [Compound 9-17, 1-Amino-3-[4-chloro-2-fluoro-5-(4-chloro-2-pyrimidyloxy)phenyl]-6-trifluoromethyl-1,2,3,4-tetrahydropyrimidine-2,4-dione]	30	100	100	100	20	100												

— patent US6479435B1, “Diaryl ethers and processes for their preparation and herbicidal and desiccant compositions containing them” (ISK Americas Incorporated, priority 1997, dated 2002)
